In US12655116B2, “Substituted isophthalic acid diamides” (Bayer Aktiengesellschaft, priority 2020, dated 2026):

Experiments:
VERPE [1] = test: Post-emergence herbicidal action against VERPE; format: in vivo, Veronica persica; details: Veronica persica, 504 h, 20 g/ha
In short: (§1)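 Foliar application at one-leaf stage of formulated test compounds, aqueous spray at 600–800 l/ha with 0.2% wetting agent. Greenhouse, optimal conditions, ~3 weeks; damage scored visually in % relative to untreated plants.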

SETVI [2] = test: Pre-emergence herbicidal action against SETVI; format: in vivo, Setaria viridis; details: Setaria viridis, 504 h; for pest or weed control at 80 g/ha: dosage 80 g/ha
In short: (§2)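 Greenhouse pots of sandy loam held seeds covered with soil, onto which the compound was applied before emergence. An aqueous suspension or emulsion of WP or EC was used at 600 to 800 l/ha with 0.2% wetting agent. Percent damage was judged visually at 3 weeks.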

ALOMY [3] = test: Post-emergence herbicidal action against ALOMY; format: in vivo, Alopecurus myosuroides; details: Alopecurus myosuroides, 504 h, visual assessment about 3 weeks after treatment vs untreated controls; for pest or weed control at 5 g/ha: dosage 5 g/ha; for pest or weed control at 20 g/ha: dosage 20 g/ha
In short: as §1

PHBPU = test: Post-emergence herbicidal action against PHBPU; format: in vivo, Pharbitis purpurea; details: Ipomoea purpurea, 504 h; for pest or weed control at 20 g/ha: dosage 20 g/ha
In short: as §1

ALOMY [4] = test: Pre-emergence herbicidal action against ALOMY; format: in vivo, Alopecurus myosuroides; details: Alopecurus myosuroides, 504 h, pre-emergence; for pest or weed control at 80 g/ha: scored visually after 3 weeks vs untreated controls (100% = plants have died, 0% = like control plants)
In short: as §2

AVEFA = test: Pre-emergence herbicidal action against AVEFA; format: in vivo, Avena fatua; details: Avena fatua, 504 h, pre-emergence; for pest or weed control at 20 g/ha: scored visually after 3 weeks, 100% = plants have died, 0% = like control plants
In short: as §2

ECHCG [5] = test: Post-emergence herbicidal action against ECHCG; format: in vivo, Echinochloa crus-galli; details: Echinochloa crus-galli, 504 h; for pest or weed control at 20 g/ha: dosage 20 g/ha
In short: as §1

VIOTR [6] = test: Pre-emergence herbicidal action against VIOTR; format: in vivo, Viola tricolor; details: Viola tricolor, 504 h; for pest or weed control at 80 g/ha: dosage 80 g/ha
In short: as §2

ABUTH [7] = test: Pre-emergence herbicidal action against ABUTH; format: in vivo, Abutilon theophrasti; details: Abutilon theophrasti, 504 h; for pest or weed control at 80 g/ha: scored visually after 3 weeks vs untreated controls (100% = plants have died, 0% = like control plants)
In short: as §2

MATIN [8] = test: Pre-emergence herbicidal action against MATIN; format: in vivo, Matricaria inodora; details: Tripleurospermum inodorum, 504 h; for pest or weed control at 80 g/ha: dosage 80 g/ha
In short: as §2

ABUTH [9] = test: Post-emergence herbicidal action against ABUTH; format: in vivo, Abutilon theophrasti; details: Abutilon theophrasti, 504 h, visual assessment about 3 weeks after treatment vs untreated controls; for pest or weed control at 20 g/ha: dosage 20 g/ha
In short: as §1

LOLRI = test: Pre-emergence herbicidal action against LOLRI; format: in vivo, Lolium rigidum; details: Lolium rigidum, 504 h, 80 g/ha
Text: Seeds of monocotyledonous and dicotyledonous weed plants and crop plants are laid out in sandy loam soil in wood-fiber pots and covered with soil. The compounds of the invention, formulated in the form of wettable powders (WP) or as emulsion concentrates (EC), are then applied to the surface of the covering soil in the form of an aqueous suspension or emulsion at a water application rate equivalent to 600 to 800 l/ha, with addition of 0.2% wetting agent. After the treatment, the pots are placed in a greenhouse and kept under good growth conditions for the trial plants. The damage to the test plants is scored visually after a test period of 3 weeks by comparison with untreated controls (herbicidal activity in percent (%): 100% activity=the plants have died, 0% activity=like control plants). […] The tables below illustrate, in an illustrative manner, the post-emergence herbicidal action of the compounds of the invention, the herbicidal activity being stated in percent.

SETVI [10] = test: Post-emergence herbicidal action against SETVI; format: in vivo, Setaria viridis; details: Setaria viridis, 504 h; for pest or weed control at 20 g/ha: dosage 20 g/ha
In short: as §1

AMARE [11] = test: Pre-emergence herbicidal action against AMARE; format: in vivo, Amaranthus retroflexus; details: Amaranthus retroflexus, 504 h, scored visually after 3 weeks vs untreated controls, 100% = plants have died, 0% = like control plants
In short: as §2

ECHCG [12] = test: Pre-emergence herbicidal action against ECHCG; format: in vivo, Echinochloa crus-galli; details: Echinochloa crus-galli, 504 h, 80 g/ha
In short: as §2

MATIN [13] = test: Post-emergence herbicidal action against MATIN; format: in vivo, Matricaria inodora; details: Tripleurospermum inodorum, 504 h, dosage 20 g/ha
In short: as §1

VIOTR [14] = test: Post-emergence herbicidal action against VIOTR; format: in vivo, Viola tricolor; details: Viola tricolor, 504 h
In short: as §1

AMARE [15] = test: Post-emergence herbicidal action against AMARE; format: in vivo, Amaranthus retroflexus; details: Amaranthus retroflexus, 504 h, 20 g/ha, visual assessment about 3 weeks after treatment, 100% = plants have died, 0% = like control plants
In short: as §1

VERPE [16] = test: Pre-emergence herbicidal action against VERPE; format: in vivo, Veronica persica; details: Veronica persica, 504 h, dosage 80 g/ha
In short: as §2

Compound	pest or weed control at 20 g/ha (VERPE [1])	pest or weed control at 80 g/ha (SETVI [2])	pest or weed control at 5 g/ha (ALOMY [3])	pest or weed control at 20 g/ha (ALOMY [3])	pest or weed control at 20 g/ha (PHBPU)	pest or weed control at 80 g/ha (ALOMY [4])	pest or weed control at 80 g/ha (AVEFA)	pest or weed control at 20 g/ha (AVEFA)	pest or weed control at 20 g/ha (ECHCG [5])	pest or weed control at 80 g/ha (VIOTR [6])	pest or weed control at 80 g/ha (ABUTH [7])	pest or weed control at 80 g/ha (MATIN [8])	pest or weed control at 20 g/ha (ABUTH [9])	pest or weed control at 80 g/ha (LOLRI)	pest or weed control at 20 g/ha (SETVI [10])	pest or weed control at 20 g/ha (AMARE [11])	pest or weed control at 80 g/ha (AMARE [11])	pest or weed control at 80 g/ha (ECHCG [12])	pest or weed control at 20 g/ha (VIOTR [14])	pest or weed control at 20 g/ha (AMARE [15])	further results
CNC(=O)c1c(I)ccc(C(=O)Nc2nnnn2C)c1Cl [Example 1-195]	80%	100%	90%	100%	80%	90%	90%	80%	80%	100%	100%	100%	80%	80%	100%	90%	100%	100%	100%	100%	pest or weed control at 20 g/ha (SETVI [2]; dosage 20 g/ha): 90%; pest or weed control at 5 g/ha (PHBPU; dosage 5 g/ha): 80%; pest or weed control at 20 g/ha (ALOMY [4]; 20 g/ha, scored visually after 3 weeks, 100% = plants have died, 0% = like control plants): 90%; pest or weed control at 20 g/ha (VIOTR [6]; dosage 20 g/ha): 100%; pest or weed control at 20 g/ha (ABUTH [7]; dosage 20 g/ha, scored visually after 3 weeks vs untreated controls, 100% = plants have died, 0% = like control plants, read-out: Pre-emergence action against ABUTH (herbicidal activity in percent)): 90%; pest or weed control at 20 g/ha (MATIN [8]; dosage 20 g/ha): 90%; pest or weed control at 5 g/ha (SETVI [10]; dosage 5 g/ha): 100%; pest or weed control at 20 g/ha (MATIN [13]): 80%; pest or weed control at 5 g/ha (VIOTR [14]; 5 g/ha): 90%
CCNC(=O)c1c(Br)ccc(C(=O)Nc2nnnn2C)c1Br [Example 1-343]	80%	100%	90%	100%	80%	100%	80%	80%	90%	100%	100%	100%	90%	80%	100%	100%	100%	90%	80%	100%	pest or weed control at 80 g/ha (VERPE [16]): 80%; pest or weed control at 5 g/ha (ECHCG [5]; dosage 5 g/ha): 80%; pest or weed control at 5 g/ha (ABUTH [9]; dosage 5 g/ha): 90%
